# Legend:
# [1] = Compatibility of FTS with pharmaceutical excipients (accelerated stability, HPLC assay); assay type: physicochemical; settings: 1:1 w/w mixture with FTS, 40° C./75% RH, loosely capped vials
# Protocol: Physical mixtures (1:1 w/w) of FTS and representative pharmaceutical excipients commonly used in oral formulations were stored at 40° C./75% RH accelerated stress conditions for four weeks in loosely capped vials. Samples were assayed by HPLC at the 0, 2-week and 4-week time points.
# Panc-1 cells = assay: Inhibition of pancreatic tumor growth with orally administered FTS (subcutaneous Panc-1 implant); assay type: in vivo, Nude CD1-Nu Mice; settings: for average tumor weight: control 1.02 g
# Protocol: Nude CD1-Nu Mice were implanted subcutaneously with 5.0×10^6 Panc-1 cells in 0.2 ml of PBS just above the right femoral joint. Eleven days after implantation, palpable tumors were observed. FTS was dispersed in 0.5% aqueous carboxymethylcellulose at a concentration of 5 mg/ml. On the eleventh day after implantation, mice were segregated into three groups and were given vehicle or FTS suspension by gavage. Group 1 (Controls, 6 mice) received 0.2 ml vehicle daily. Group 2 (20 mg/kg FTS, 7 mice) received 0.1 ml FTS suspension daily. Group 3 (40 mg/kg FTS, 6 mice) received 0.2 ml FTS suspension daily. Mice were treated for ten days, and were sacrificed. Tumors were excised and weighed.
# [2] = Bioavailability of orally administered FTS to rats (plasma FTS by LC/MS); assay type: in vivo, Crl:CD(SD) (IGS)BR rats; settings: oral 200 mg/kg in corn oil (95%) and ethanol (5%)
# Protocol: FTS was dissolved in a mixture of corn oil (95%) and ethanol (5%). Aliquots of the resulting solution were administered to Crl:CD(SD) (IGS)BR rats (twenty-four) at a dose of 200 mg/kg. Blood samples were collected in lithium-heparin-containing tubes via the retro-orbital plexus while under CO2/O2 anesthesia at 1, 2, 4, 8, 12 and 24 hours after dosing. Concentration of FTS at each time point was determined by LC/MS.
# [3] = Bioavailability of orally administered FTS formulated in 0.5% aqueous carboxymethylcellulose (plasma FTS by LC/MS); assay type: in vivo, CD-1 mice; settings: CD-1, mouse, 40 mg/kg, mice, gavage, 0.5% aqueous carboxymethylcellulose suspension
# Protocol: (§1) FTS (40 Mg) was dispersed in 0.5% aqueous carboxymethylcellulose (10 ml). Aliquots of the resulting suspension were administered by gavage to CD-1 mice (eighteen) at a dose of […] (at a volume of 10 ml/kg of FTS suspension calculated for actual animal weight). Blood samples were collected in lithium heparin tubes via the retro-orbital plexus while under CO2/O2 anesthesia at 1, 2, 4, 8, 12, and 24 hours (3 animals at each time point) after dosing. Aliquots (100 μL) of plasma were mixed with water, pH 11 buffer solution, and acetonitrile. After centrifugation, the supernatant was evaporated to dryness. The residue was re-suspended in water/acetonitrile and centrifuged, and the supernatant was transferred to auto-sampler vials for FTS determination by LC/MS.
# [4] = Bioavailability of orally administered FTS formulated in corn oil (plasma FTS by LC/MS); assay type: in vivo, CD-1 mice; settings: CD-1, mouse, 40 mg/kg, mice, gavage, corn oil suspension
# Protocol: as §1, with “mg)” for “Mg)”, “corn oil” for “0.5% aqueous carboxymethylcellulose”, “12” for “12,”, “solution” for “solution,”, “resuspended” for “re-suspended”, “liquid chromatography/mass spectrometry (LC/MS).” for “LC/MS.”
# There was a rapid decrease to less than 3 ng/ml after 24 hours.
# [5] = 20 mg/kg FTS daily by gavage in 0.5% CMC for ten days
# [6] = 40 mg/kg FTS daily by gavage in 0.5% CMC for ten days
# [7] = oral, dose 40 mg/ml (10 ml/kg), 1 hour
# [8] = oral, dose 40 mg/ml (10 ml/kg), 2 hours
# [9] = oral, dose 40 mg/ml (10 ml/kg), 24 hours
# [10] = po, read-out: oral bioavailability compared to intra-peritoneal injection
structure (smiles),measurement,setting,value
"CC(C)=CCC/C(C)=C/CC/C(C)=C/CSc1ccccc1C(=O)O [FTS, farnesyl-thiosalicylic acid]","HPLC assay, 0 weeks","[1]; 0 weeks, in % (unit assumed)",97.75
same,"HPLC assay, 2 weeks",[1]; 2 weeks,97.1%
same,"HPLC assay, 4 weeks","[1]; 4 weeks, in % (unit assumed)",97.76
same,tumor weight lower than control,Panc-1 cells; [5],32%
same,average tumor weight,Panc-1 cells; [5],0.68 g
same,tumor weight lower than control,Panc-1 cells; [6],53%
same,average tumor weight,Panc-1 cells; [6],0.47 g
same,concentration at 1 h,"[2]; Crl:CD(SD) (IGS)BR, rat, plasma, 1 hour",4450 ng/mL
same,concentration at 2 h,"[2]; Crl:CD(SD) (IGS)BR, rat, plasma, 2 hours",4550 ng/mL
same,concentration at 4 h,"[2]; Crl:CD(SD) (IGS)BR, rat, plasma, 4 hours",3050 ng/mL
same,concentration at 8 h,"[2]; Crl:CD(SD) (IGS)BR, rat, plasma, 8 hours",2220 ng/mL
same,concentration at 12 h,"[2]; Crl:CD(SD) (IGS)BR, rat, plasma, 12 hours",685 ng/mL
same,concentration at 24 h,"[2]; Crl:CD(SD) (IGS)BR, rat, plasma, 24 hours",140 ng/mL
same,oral bioavailability (in words),[2],high level of oral bioavailability
same,concentration at 1 h,[3]; [7],3380 ng/mL
same,concentration at 2 h,[3]; [8],1590 ng/mL
same,concentration at 24 h,[3]; [9],< 3 ng/mL
same,bioavailability,[3]; [10],69%
same,concentration at 1 h,[4]; [7],2160 ng/mL
same,concentration at 2 h,[4]; [8],1330 ng/mL
same,concentration at 24 h,[4]; [9],< 3 ng/mL
same,bioavailability,[4]; [10],55%
